According to PubChem BioAssay AID194 (DTP/NCI, 2004):
“And” between values parts separate entries of the source, which are not always exact repeats. Identical values can stand only once. Inconclusive results are not listed.

Tested on: BDF1 mice, B16 melanoma s.c., survival/tumor T/C
Experiment: NCI In Vivo Anticancer Drug Screen. Data for tumor model B16 Melanoma (subcutaneous) in B6D2F1 (BDF1) mice
Experimental: The antitumor activity of compounds was measured in mice bearing transplantable tumors. Survival or tumor size were measured and the results are expressed as the measurement made in the treated group (T) divided by the measurement made in the vehicle treated control group (C). The tumor model used in this assay is B16 Melanoma (subcutaneous) in B6D2F1 (BDF1) mice

[1] = endpoint: median survival time, dose: 4.0 mg/kg/injection, schedule: Q01DX009 (ip), vehicle: saline with Tween-80, higher = longer survival
[2] = endpoint: median survival time, dose: 8.0 mg/kg/injection, schedule: Q01DX009 (ip), vehicle: saline with Tween-80, higher = longer survival
[3] = endpoint: median survival time, dose: 16.0 mg/kg/injection, schedule: Q01DX009 (ip), vehicle: saline with Tween-80, higher = longer survival
[4] = endpoint: median survival time, dose: 32.0 mg/kg/injection, schedule: Q01DX009 (ip), vehicle: saline with Tween-80, higher = longer survival
[5] = endpoint: median survival time, dose: 64.0 mg/kg/injection, schedule: Q01DX009 (ip), vehicle: saline with Tween-80, higher = longer survival

Q: How did the T/C (endpoint: median survival time, dose: 24.0 mg/kg/injection, schedule: Q01DX001 (ip), vehicle: other, higher = longer survival) turn out when `O=NN(CCF)C(=O)NC1CCS(=O)(=O)CC1` was run?
A: Its T/C is 156 % of control.

Q: And the T/C (endpoint: median survival time, dose: 32.0 mg/kg/injection, schedule: Q01DX001 (ip), vehicle: other, higher = longer survival)?
A: Its T/C is 175 % of control.

Q: How did the T/C [1] turn out when `Nc1nc(=S)c2ncn(C3CC(O)C(CO)O3)c2[nH]1` (centres undefined) was run?
A: Its T/C is 109 % of control.

Q: And the T/C [2]?
A: Its T/C is 91 % of control.

Q: And the T/C [3]?
A: The T/C was 95 % of control.

Q: What about the T/C [4] of the same compound?
A: The T/C was 91 % of control.

Q: What about the T/C [5] of the same compound?
A: Its T/C is 123 % of control.

Q: Which results are given for `O=C1C=CC(=O)N1c1ccc(Cl)cc1`?
A: T/C (endpoint: median survival time, dose: 1.25 mg/kg/injection, schedule: Q01DX009 (ip), vehicle: Klucel (hydroxypropylcellulose) (HPC), higher = longer survival): 123 % of control; T/C (endpoint: median survival time, dose: 5.0 mg/kg/injection, schedule: Q01DX009 (ip), vehicle: Klucel (hydroxypropylcellulose) (HPC), higher = longer survival): 102 % of control; T/C (endpoint: median survival time, dose: 10.0 mg/kg/injection, schedule: Q01DX009 (ip), vehicle: Klucel (hydroxypropylcellulose) (HPC), higher = longer survival): 89 % of control; T/C (endpoint: median survival time, dose: 20.0 mg/kg/injection, schedule: Q01DX009 (ip), vehicle: Klucel (hydroxypropylcellulose) (HPC), higher = longer survival): 98 % of control

Q: What does the source list for `COC1=C2C[C@@H](C)C[C@@H](OC)[C@@H](O)[C@H](C)/C=C(\C)[C@@H](OC(N)=O)[C@H](OC)/C=C\C=C(/C)C(=O)NC(=CC1=O)C2=O`?
A: T/C (endpoint: median survival time, dose: 0.5 mg/kg/injection, schedule: Q01DX005 (ip), vehicle: water, higher = longer survival): 118 % of control; T/C (endpoint: median survival time, dose: 1.0 mg/kg/injection, schedule: Q01DX005 (ip), vehicle: water, higher = longer survival): 105 % of control

Q: What does the source list for `COc1ccc(C[C@H](N)C(=O)NC2C(CO)OC(n3cnc4c(N(C)C)ncnc43)C2O)cc1` (some centres undefined)?
A: T/C (endpoint: median survival time, dose: 8.0 mg/kg/injection, schedule: Q01DX009 (ip), vehicle: saline, higher = longer survival): 151 % of control; T/C (endpoint: median survival time, dose: 16.0 mg/kg/injection, schedule: Q01DX009 (ip), vehicle: saline, higher = longer survival): 96 % of control; T/C (endpoint: median survival time, dose: 32.0 mg/kg/injection, schedule: Q01DX009 (ip), vehicle: saline, higher = longer survival): 107 % of control

Q: How did the T/C (endpoint: median survival time, dose: 5.12 mg/kg/injection, schedule: Q01DX005 (ip), vehicle: Klucel (hydroxypropylcellulose) (HPC), higher = longer survival) turn out when `C1CCC2[N-]CC3CCCCC3[N-]CC3CCCCC3[N-]CC3CCCCC3[N-]CC2C1.[Cu]` (centres undefined) was run?
A: Its T/C is 98 % of control.

Q: And the T/C (endpoint: median survival time, dose: 6.4 mg/kg/injection, schedule: Q01DX005 (ip), vehicle: Klucel (hydroxypropylcellulose) (HPC), higher = longer survival)?
A: Its T/C is 95 % of control and 96 % of control and 102 % of control.

Q: What about the T/C (endpoint: median survival time, dose: 8.0 mg/kg/injection, schedule: Q01DX001 (ip), vehicle: Klucel (hydroxypropylcellulose) (HPC), higher = longer survival) of the same compound?
A: Its T/C is 93 % of control and 95 % of control and 106 % of control.

Q: And the T/C (endpoint: median survival time, dose: 8.0 mg/kg/injection, schedule: Q01DX005 (ip), vehicle: Klucel (hydroxypropylcellulose) (HPC), higher = longer survival)?
A: The T/C was 96 % of control and 97 % of control and 98 % of control.

Q: What about the T/C (endpoint: median survival time, dose: 10.0 mg/kg/injection, schedule: Q01DX001 (ip), vehicle: Klucel (hydroxypropylcellulose) (HPC), higher = longer survival) of the same compound?
A: The T/C was 95 % of control and 107 % of control and 109 % of control.

Q: What about the T/C (endpoint: median survival time, dose: 12.5 mg/kg/injection, schedule: Q01DX001 (ip), vehicle: Klucel (hydroxypropylcellulose) (HPC), higher = longer survival) of the same compound?
A: The T/C was 93 % of control and 94 % of control and 119 % of control.

Q: What does the source list for `COc1cccc2c1C(=O)c1c(O)c3c(c(O)c1C2=O)C[C@@](O)(C(=O)COC(=O)Cc1ccccc1)C[C@@H]3OC1CC(N)C(O)C(C)O1` (some centres undefined)?
A: T/C (endpoint: median survival time, dose: 0.5 mg/kg/injection, schedule: Q01DX009 (ip), vehicle: saline with Tween-80, higher = longer survival): 86 % of control; T/C (endpoint: median survival time, dose: 1.0 mg/kg/injection, schedule: Q01DX009 (ip), vehicle: saline with Tween-80, higher = longer survival): 88 % of control; T/C (endpoint: median survival time, dose: 2.0 mg/kg/injection, schedule: Q01DX009 (ip), vehicle: saline with Tween-80, higher = longer survival): 94 % of control

Q: With `O=c1n(CC2CO2)c(=O)n(CC2CO2)c(=O)n1CC1CO1` (centres undefined) as the compound, how does the T/C (endpoint: median survival time, dose: 20.0 mg/kg/injection, schedule: Q01DX011 (ip), vehicle: saline, higher = longer survival) read?
A: The T/C was 109 % of control.

Q: And the T/C (endpoint: median survival time, dose: 40.0 mg/kg/injection, schedule: Q01DX011 (ip), vehicle: saline, higher = longer survival)?
A: The T/C was 155 % of control.

Q: How did the T/C [1] turn out when `CC1=C(/C=C/C(C)=C/C=C/C(C)=C/CO)C(C)(C)CCC1` was run?
A: The T/C was 102 % of control.

Q: And the T/C [2]?
A: The T/C was 94 % of control.

Q: And the T/C [3]?
A: The T/C was 101 % of control and 117 % of control.

Q: What about the T/C [4] of the same compound?
A: Its T/C is 100 % of control and 102 % of control.

Q: And the T/C [5]?
A: Its T/C is 92 % of control.

Q: With `CS(=O)(=O)OCCCCOS(C)(=O)=O` as the compound, how does the T/C (endpoint: median survival time, dose: 12.5 mg/kg/injection, schedule: Q01DX009 (ip), vehicle: Klucel (hydroxypropylcellulose) (HPC), higher = longer survival) read?
A: The T/C was 88 % of control and 100 % of control.

Q: What about the T/C (endpoint: median survival time, dose: 25.0 mg/kg/injection, schedule: Q01DX009 (ip), vehicle: saline with Tween-80, higher = longer survival) of the same compound?
A: The T/C was 100 % of control.

Q: What about the T/C (endpoint: median survival time, dose: 50.0 mg/kg/injection, schedule: Q01DX009 (ip), vehicle: saline with Tween-80, higher = longer survival) of the same compound?
A: The T/C was 100 % of control.

Q: What about the T/C (endpoint: median tumor weight (est.), dose: 12.5 mg/kg/injection, schedule: Q01DX009 (ip), vehicle: saline with Tween-80, higher = larger tumour) of the same compound?
A: The T/C was 162 % of control.

Q: What about the T/C (endpoint: median tumor weight (est.), dose: 25.0 mg/kg/injection, schedule: Q01DX009 (ip), vehicle: Klucel (hydroxypropylcellulose) (HPC), higher = larger tumour) of the same compound?
A: Its T/C is 97 % of control and 83 % of control.

Q: What about the T/C (endpoint: median tumor weight (est.), dose: 25.0 mg/kg/injection, schedule: Q01DX009 (ip), vehicle: saline with Tween-80, higher = larger tumour) of the same compound?
A: The T/C was 88 % of control.

Q: And the T/C (endpoint: median tumor weight (est.), dose: 50.0 mg/kg/injection, schedule: Q01DX009 (ip), vehicle: Klucel (hydroxypropylcellulose) (HPC), higher = larger tumour)?
A: Its T/C is 61 % of control.

Q: What about the T/C (endpoint: median tumor weight (est.), dose: 50.0 mg/kg/injection, schedule: Q01DX009 (ip), vehicle: saline with Tween-80, higher = larger tumour) of the same compound?
A: Its T/C is 69 % of control.

Q: `CCCCCc1cc(O)c2c(c1)OC(C)(C)c1ccc(C)cc1-2` was tested. Which T/C (endpoint: median survival time, dose: 64.0 mg/kg/injection, schedule: Q01DX009 (ip), vehicle: saline, higher = longer survival) did it give?
A: Its T/C is 113 % of control.

Q: What about the T/C (endpoint: median survival time, dose: 128.0 mg/kg/injection, schedule: Q01DX009 (ip), vehicle: saline, higher = longer survival) of the same compound?
A: Its T/C is 98 % of control.

Q: What about the T/C (endpoint: median survival time, dose: 256.0 mg/kg/injection, schedule: Q01DX009 (ip), vehicle: saline, higher = longer survival) of the same compound?
A: Its T/C is 117 % of control.

Q: What about the T/C (endpoint: median survival time, dose: 512.0 mg/kg/injection, schedule: Q01DX009 (ip), vehicle: saline, higher = longer survival) of the same compound?
A: The T/C was 98 % of control.
